The term IC50 denotes the point on the concentration scale where inhibition reaches its midpoint. In general, EC50 refers to the concentration that produces a half-maximal response.

Molecules are shown by their SMILES.

Experiment [1] addresses T1, recombinant human Wee1A kinase (Homo sapiens, UniProt P30291).
T1 construct: full length Wee1 kinase was expressed by baculovirus in insect cells; purchased Invitrogen PV3817; host or cells: insect cells (baculovirus)
Briefly: Wee1A kinase binding assay (LanthaScreen Eu time-resolved FRET). As to conditions: 30 nM tracer 178, 5 nM Wee1A kinase, 2 nM Eu-labeled antibody; 60 minutes at room temperature; read-out: Wee1A kinase Binding IC50. A digest of the protocol:
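Full-length, baculovirus-expressed GST-tagged Wee1A (5 nM) was mixed with 2 nM Eu-anti-GST antibody, 30 nM kinase tracer 178 and compound (1% DMSO). Buffer was 50 mM HEPES pH 7.5, 10 mM MgCl2, 1 mM EGTA, 0.01% Brij-35, incubated 60 min at room temperature. TR-FRET 665/615 nm emission ratios from duplicates were curve-fitted.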
(TR-FRET usually uses a lanthanide donor and a delayed reading to cut background.)

Experiment [2] has as its target T2, Myt1 kinase (recombinant PMYT-1) (Homo sapiens, UniProt Q99640).
T2 construct: full length PMYT-1 was expressed by baculovirus in insect cells; purchased Invitrogen A30984; host or cells: insect cells (baculovirus)
T2 sequence (Q99640 1-499): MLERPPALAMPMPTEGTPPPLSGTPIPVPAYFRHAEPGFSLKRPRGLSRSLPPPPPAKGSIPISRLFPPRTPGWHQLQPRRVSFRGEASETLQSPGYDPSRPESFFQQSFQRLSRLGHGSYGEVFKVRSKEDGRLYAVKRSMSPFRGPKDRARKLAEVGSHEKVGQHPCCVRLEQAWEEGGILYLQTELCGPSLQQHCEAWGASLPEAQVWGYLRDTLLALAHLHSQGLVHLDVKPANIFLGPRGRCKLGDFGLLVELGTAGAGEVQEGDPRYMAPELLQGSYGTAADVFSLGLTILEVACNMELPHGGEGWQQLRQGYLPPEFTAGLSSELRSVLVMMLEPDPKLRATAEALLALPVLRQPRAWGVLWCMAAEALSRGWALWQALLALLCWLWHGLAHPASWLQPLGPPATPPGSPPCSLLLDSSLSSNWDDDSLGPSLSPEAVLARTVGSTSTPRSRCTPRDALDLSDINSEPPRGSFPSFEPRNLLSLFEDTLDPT
The experiment can be described thus: Myt1 kinase binding assay (LanthaScreen Eu Kinase Binding Assay). As to conditions: 3 nM tracer 178, 2.5 nM PMYT-1, 1 nM Eu-labeled antibody; read-out: Myt1 kinase Binding IC50. A digest of the protocol: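 The binding affinity of compounds for Myt1 kinase was measured with a LanthaScreen Europium (Eu) Kinase Binding Assay, a time-resolved FRET format in which test compounds compete against a labeled kinase tracer, and the results were expressed as IC50 values describing compound binding to Myt1.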

In experiment [3] the target is T3, Myt1 kinase (CDK1 Thr14 phosphorylation in ACHN renal cell carcinoma cells) (Homo sapiens, UniProt Q99640).
T3 construct: pCDK1 Thr14 AlphaLISA read-out
T3 sequence (Q99640 1-499): T2 sequence (Q99640 1-499)
Briefly: AlphaLISA assay, Myt1 kinase target engagement (phospho-CDK1 Thr14) in ACHN cells. The class given is cell-based. Conditions: ACHN cells (marked *); 4 h treatment. The protocol:
Each of an ACHN renal cell carcinoma cell line (ATCC) and a DAOY medulloblastoma cell line, and an A427 lung cancer line were cultured in Minimum Essential Medium Eagle supplemented with 10% fetal calf serum (Sigma), 1% Penicillin-Streptomycin and 10 mM HEPES buffer (HyClone). Cell cultures were kept in a humidified incubator at 37 °C and 5% CO2. Cells were routinely tested for Mycoplasma contamination.
For target engagement assessment of Myt1 kinase inhibition, quantification of Cdk1 phosphorylated on threonine 14 was detected using the AlphaLISA® SureFire® Ultra™ Human Phospho-CDK1 (Thr14) assay (Perkin Elmer). DAOY or ACHN cells were seeded into tissue culture treated 96-well plates (VWR) to a density of 10,000 or 20,000 cells per well respectively. 24 h post seeding cells were treated for 4 h with compounds at concentrations ranging from 7 to 5000 nM. Cells were washed with PBS and lysed in 50 μl AlphaLISA lysis buffer before freezing at −80 C. Ten ul of the lysate was transferred to 384 well plates and incubated with AlphaLISA donor and acceptor beads according to the manufacturer's instructions. Dose response curves and EC50 values were calculated and visualized using GraphPad Prism version 9. Target engagement for Myt1 kinase can also be measured using the same AlphaLISA assay in OVCAR3 cells, an ovarian cancer cell line. NIH:OVCAR-3 (OVCAR3) cells are cultured in RPMI-1640 medium supplemented with 0.01 mg/ml insulin, 20% FBS, 1% Penicillin-Streptomycin and 10 mM HEPES buffer. 14,000 cells per well are seeded into 96 well tissue culture plates in full medium. Twenty-four hours post seeding, cells are treated with compound for 4 hours at concentrations ranging from 0.017 nM to 1000 nM.
On the technique in general: Alpha assays give light when donor and acceptor beads are brought close together.

Experiment [4] has as its target T4, Wee1A kinase (CDK1 Tyr15 phosphorylation in ACHN renal cell carcinoma cells) (Homo sapiens, UniProt P30291).
T4 construct: pCDK1 Tyr15 immunofluorescence read-out
The experiment can be described thus: High-content imaging of pCdk1 Y15, Wee1A kinase target engagement in ACHN cells. The class given is cell-based. Conditions: 4 h treatment, nuclear positivity for pCdk1 Y15 vs DMSO control, read-out: CDK1 Tyr15 Phosphorylation EC50. A digest of the protocol: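 ACHN cells exposed to compound for 4 h over 7–5,000 nM or 0.3–200 nM, then fixed and immunostained for pCDK1 Y15 with DAPI nuclear counterstain. The percentage of pCdk1 Y15 nucleus-positive cells relative to DMSO control was imaged per well; EC50 from dose-response curves.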

In experiment [5] the target is T5, Myt1 kinase (CDK1 Thr14 phosphorylation in DAOY medulloblastoma cells) (Homo sapiens, UniProt Q99640).
T5 construct: pCDK1 Thr14 AlphaLISA read-out
T5 sequence (Q99640 1-499): T2 sequence (Q99640 1-499)
Briefly: AlphaLISA assay, Myt1 kinase target engagement (phospho-CDK1 Thr14) in DAOY cells. The class given is cell-based. As to conditions: 4 h treatment, read-out: CDK1 Thr14 Phosphorylation EC50. A digest of the protocol:
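Cells seeded at 10,000 (DAOY) or 20,000 (ACHN) per well, treated 24 h later for 4 h with compound at 7–5000 nM. Lysates analysed by AlphaLISA SureFire Ultra phospho-CDK1 (Thr14) with donor/acceptor beads; EC50 from dose-response curves.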

Experiment [6] concerns ACHN cells. Briefly: Cell Titer Glo viability assay, ACHN cells. Conditions: Homo sapiens, 144 h, absolute EC50. Format: cell-based. A digest of the protocol: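 Cells grown in MEM with 10% FCS were seeded at 500 (A427), 400 (ACHN) or 250 (DAOY) per well and treated the next day with compound at 17 to 10 000 nM. Viability relative to untreated control was read at 144 h by CellTiter-Glo 2.0.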
On the technique in general: ATP-based viability assays read luminescence as a measure of living cells.

T4 sequence (P30291 whole entry): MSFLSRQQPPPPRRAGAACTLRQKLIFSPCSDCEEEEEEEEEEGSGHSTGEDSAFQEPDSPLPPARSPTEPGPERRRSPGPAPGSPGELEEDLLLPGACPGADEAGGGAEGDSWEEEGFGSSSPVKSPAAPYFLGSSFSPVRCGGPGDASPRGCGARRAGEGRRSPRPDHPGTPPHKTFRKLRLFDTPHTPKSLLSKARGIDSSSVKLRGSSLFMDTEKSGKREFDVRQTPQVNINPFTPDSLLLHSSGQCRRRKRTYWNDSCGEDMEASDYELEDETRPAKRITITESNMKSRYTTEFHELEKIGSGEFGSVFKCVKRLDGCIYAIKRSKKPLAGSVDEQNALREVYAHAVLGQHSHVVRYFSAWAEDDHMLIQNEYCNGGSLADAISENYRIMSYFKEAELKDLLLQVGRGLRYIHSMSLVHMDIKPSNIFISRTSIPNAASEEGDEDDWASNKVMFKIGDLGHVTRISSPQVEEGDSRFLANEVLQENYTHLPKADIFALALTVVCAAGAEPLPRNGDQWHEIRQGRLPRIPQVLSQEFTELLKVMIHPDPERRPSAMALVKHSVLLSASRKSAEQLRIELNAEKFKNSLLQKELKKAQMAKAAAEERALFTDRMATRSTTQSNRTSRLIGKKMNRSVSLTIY
T1 sequence (P30291 whole entry): as above

For `C=CCn1c(=O)c2cnc(Nc3ccc(OCCF)nc3)nc2n1-c1cccc(OC2CCN(C)CC2)n1` [Compound 399, 2-allyl-6-((6-(2-fluoroethoxy)pyridin-3-yl)amino)-1-(6-((1-methylpiperidin-4-yl)oxy)pyridin-2-yl)-1,2-dihydro-3H-pyrazolo[3,4-d]pyrimidin-3-one], the IC50 in experiment [1] was below 10 nM; in experiment [2], below 20 nM. Moreover, the EC50 was below 200 nM in experiment [3] and below 100 nM in experiment [4].

As for `[2H]C([2H])([2H])N1CCC(Oc2nccc(-n3c4nc(Nc5ccc6c(cnn6C)c5)ncc4c(=O)n3CC=C)n2)CC1` [Compound 383, 2-allyl-6-(1-methyl-1H-indazol-5-ylamino)-1-(2-{1-[(^2H3)methyl]-4-piperidyloxy}-4-pyrimidinyl)-1,2-dihydro-3H-1,2,5,7-tetraazainden-3-one], the IC50 in experiment [1] was below 10 nM; in experiment [2], 20 to 100 nM. The compound also returned an EC50 in experiment [3] of 500 to 1000 nM.

For `C=CCn1c(=O)c2cnc(Nc3ccc4ccncc4c3)nc2n1-c1cccc(OC2CCN(C)CC2)n1` [Compound 326, 2-allyl-6-(7-isoquinolylamino)-1-[6-(1-methyl-4-piperidyloxy)-2-pyridyl]-1,2-dihydro-3H-1,2,5,7-tetraazainden-3-one], the half-maximal inhibitory concentration (IC50) was below 10 nM in experiment [1] and 20 to 100 nM in experiment [2]. For the same compound, the EC50 in experiment [3] was 200 to 500 nM; in experiment [4], below 100 nM.

`C=CCn1c(=O)c2cnc(Nc3ccc4cnn(C)c4c3)nc2n1-c1cccc(OC2CCN(C)CC2)n1` [Compound 389, 2-allyl-6-((1-methyl-1H-indazol-6-yl)amino)-1-(6-((1-methylpiperidin-4-yl)oxy)pyridin-2-yl)-1,2-dihydro-3H-pyrazolo[3,4-d]pyrimidin-3-one]: the IC50 in experiment [1] is below 10 nM; in experiment [2] it was 20 to 100 nM. Further, the figures for the EC50 in experiment [3] and in experiment [4] were below 200 nM and below 100 nM, respectively.

`C=CCn1c(=O)c2cnc(Nc3ccc4[nH]nc(C)c4c3)nc2n1-c1cccc(OC2CCN(C)CC2)n1` [Compound 355, 2-allyl-6-((3-methyl-1H-indazol-5-yl)amino)-1-(6-((1-methylpiperidin-4-yl)oxy)pyridin-2-yl)-1,2-dihydro-3H-pyrazolo[3,4-d]pyrimidin-3-one]: the figures for the IC50 in experiment [1] and in experiment [2] were below 10 nM and below 20 nM, respectively. For the same compound, the EC50 is 200 to 500 nM in experiment [3] and below 100 nM in experiment [4].

`C=CCn1c(=O)c2cnc(Nc3cnc4c(cnn4C(C)C)c3)nc2n1-c1cccc(OC2CCN(C)CC2)n1` [Compound 406, 2-allyl-6-((1-isopropyl-1H-pyrazolo[3,4-b]pyridin-5-yl)amino)-1-(6-((1-methylpiperidin-4-yl)oxy)pyridin-2-yl)-1,2-dihydro-3H-pyrazolo[3,4-d]pyrimidin-3-one]: the IC50 in experiment [1] is below 10 nM; in experiment [2], below 20 nM. Also, the EC50 in experiment [3] was below 200 nM; in experiment [4] it was below 100 nM.

Regarding `C=CCn1c(=O)c2cnc(Nc3ccc4c(cnn4C)c3)nc2n1-c1cccc(OC2CCCN(C)CC2)n1` (single isomer, unassigned) [Compound 374], the IC50 in experiment [1] is below 10 nM; in experiment [2] it was 20 to 100 nM. In addition, the figures for the EC50 in experiment [3] and in experiment [4] were 500 to 1000 nM and below 100 nM, respectively.

For the compound `C=CCn1c(=O)c2cnc(Nc3ccc4c(cnn4C(C)C)c3)nc2n1-c1ccnc(OC2CCN(C)CC2)n1` [Compound 401, 2-allyl-6-((1-isopropyl-1H-indazol-5-yl)amino)-1-(2-((1-methylpiperidin-4-yl)oxy)pyrimidin-4-yl)-1,2-dihydro-3H-pyrazolo[3,4-d]pyrimidin-3-one], the IC50 in experiment [1] was below 10 nM; in experiment [2], below 20 nM. For the same compound, the EC50 is below 200 nM in experiment [3] and below 100 nM in experiment [4].

Regarding `C=CCn1c(=O)c2cnc(Nc3ccc(Br)cc3)nc2n1-c1cccc(OC2CCN(C)CC2)n1` [Compound 370, 2-allyl-6-(p-bromophenylamino)-1-[6-(1-methyl-4-piperidyloxy)-2-pyridyl]-1,2-dihydro-3H-1,2,5,7-tetraazainden-3-one], the IC50 in experiment [1] was below 10 nM; in experiment [2], below 20 nM. Besides, the values for the EC50 in experiment [3] and in experiment [4] were 200 to 500 nM and below 100 nM, respectively.

Regarding `C=CCn1c(=O)c2cnc(Nc3cnn(CC(C)C)c3)nc2n1-c1cccc(OC2CCN(C)CC2)n1` [Compound 200, 2-allyl-6-(1-isobutyl-4-pyrazolylamino)-1-[6-(1-methyl-4-piperidyloxy)-2-pyridyl]-1,2-dihydro-3H-1,2,5,7-tetraazainden-3-one], the IC50 in experiment [1] was below 10 nM; in experiment [2], 100 to 500 nM. Also, the EC50 in experiment [5] is above 1000 nM; in experiment [4], below 100 nM; in experiment [6] it was at most 100 nM.

As to `C=CCn1c(=O)c2cnc(Nc3cccnc3)nc2n1-c1cccc(OC2CCN(C)CC2)n1` [Compound 229, 2-allyl-1-[6-(1-methyl-4-piperidyloxy)-2-pyridyl]-6-(3-pyridylamino)-1,2-dihydro-3H-1,2,5,7-tetraazainden-3-one], the 50% inhibitory concentration (IC50) in experiment [1] was below 10 nM; in experiment [2] it was 20 to 100 nM. Also, the concentration for a half-maximal effect (EC50) in experiment [5] was above 1000 nM; in experiment [4], 100 to 500 nM; in experiment [6], at most 100 nM.

Regarding `C=CCn1c(=O)c2cnc(Nc3ccc4nn(C(C)(C)C)cc4c3)nc2n1-c1cccc(OC2CCNCC2)n1` [Compound 395, 2-allyl-6-((2-(tert-butyl)-2H-indazol-5-yl)amino)-1-(6-(piperidin-4-yloxy)pyridin-2-yl)-1,2-dihydro-3H-pyrazolo[3,4-d]pyrimidin-3-one], the IC50 in experiment [1] was below 10 nM; in experiment [2], below 20 nM. Moreover, the EC50 in experiment [3] is above 1000 nM; in experiment [4] it was below 100 nM.

As to `C=CCn1c(=O)c2cnc(Nc3ccc4c(cnn4C)c3)nc2n1-c1cccc(OC2CCN(CC)CC2)n1` [Compound 321, 2-allyl-1-[6-(1-ethyl-4-piperidyloxy)-2-pyridyl]-6-(1-methyl-1H-indazol-5-ylamino)-1,2-dihydro-3H-1,2,5,7-tetraazainden-3-one], the IC50 in experiment [1] is below 10 nM; in experiment [2], 20 to 100 nM. For the same compound, the EC50 in experiment [5] is 500 to 1000 nM; in experiment [4], below 100 nM; in experiment [6], at most 100 nM.
